For experiment [1], the system named is RF strain of HIV-1 in CEM-SS cells. Kind of experiment: HIV-1 cell protection assay (XTT dye reduction). It is filed as cell-based. How it is done:
HIV-1 Cell Protection Assay
The antiviral activities of potential modulator compounds (test compounds) were determined in HIV-1 cell protection assays using the RF strain of HIV-1, CEM-SS cells, and the XTT dye reduction method (Weislow, O, S. et al., J. Natl. Cancer Inst 81: 577-586 (1989)). Subject cells were infected with HIV-1 RF virus at an moi of to affect about a 90% kill (for example, an moi in the range of from about 0.025 to about 0.819) or mock infected with medium only and added at 2×10^4 cells per well, with the addition of approximately 200 μL of medium, into 96 well plates containing half-log dilutions of test compounds. Six days later, 50 μl of XTT solution (1 mg/ml XTT tetrazolium and 20 nM phenazine methosulfate) were added to the wells and the plates were reincubated for four hours. Viability, as determined by the amount of XTT formazan produced, was quantified spectrophotometrically by absorbance at 450 nm.
Data from CPE assays were expressed as the percent of formazan produced in compound-treated cells compared to formazan produced in wells of uninfected, compound-free cells. The fifty percent effective concentration (EC50) was calculated as the concentration of compound that affected an increase in the percentage of formazan production in infected, compound-treated cells to 50% of that produced by uninfected, compound-free cells. The 50% cytotoxicity concentration (CC50) was calculated as the concentration of compound that decreased the percentage of formazan produced in uninfected, compound-treated cells to 50% of that produced in uninfected, compound-free cells. The therapeutic index was calculated by dividing the cytotoxicity (CC50) by the antiviral activity (EC50).
For orientation: Formazan colour is commonly taken as a measure of viable cells.

Experiment [2] has as its target T1, Full-length wild type HIV-1 integrase (SF1) (Human immunodeficiency virus type 1 group M subtype B, UniProt P04585).
T1 construct: made in house; host or cells: E. coli BL21 (DE3)
Kind of experiment: Integrase strand-transfer scintillation proximity assay. Type of experiment: biochemical. As to conditions: integrase strand-transfer SPA; read-out: IC50. The text has this: Integrase Strand-Transfer Scintillation Proximity Assay
Oligonucleotides: Oligonucleotide #1-5′-(biotin)[…]-3′ (SEQ ID NO: 1) and oligonucleotide #2-5′-[…]-3′ (SEQ ID NO: 2), were synthesized by TriLink BioTechnologies, Inc. (San Diego, Calif.). The annealed product represents preprocessed viral ds-DNA derived from the LTR U5 sequence of the viral genome. A ds-DNA control to test for non-specific interactions was made using a 3′ di-deoxy derivative of oligonucleotide #1 annealed to oligonucleotide #2. The CA overhang at the 5′ end of the non-biotinylated strand of the ds-DNA was created artificially by using a complimentary DNA oligonucleotide shortened by 2 base pairs. This configuration eliminates the requisite 3′ processing step of the integrase enzyme prior to the strand-transfer mechanism.
Host ds-DNA was prepared as an unlabeled and [^3H]-thymidine labeled product from annealed oligonucleotide #3-5-[…]-3′ (SEQ ID NO: 3), and oligonucleotide #4-1-5′-[…]-3′ (SEQ ID NO: 4), both synthesized by TriLink BioTechnologies, Inc. (San Diego, Calif.). The annealed product had overhanging 3′ ends of poly(dA). Host DNA was custom radiolabeled by PerkinElmer Life Sciences Inc. (Boston, Mass.) using an enzymatic method with a 12/1 ratio of [methyl-^3H]dTTP/cold ds-DNA to yield 5′-blunt end ds-DNA with a specific activity of >900 Ci/mmol. The radiolabeled product was purified using a NENSORB cartridge and stored in stabilized aqueous solution (PerkinElmer). The final radiolabeled product had six [^3H]-thymidine nucleotides at both 5′ ends of the host ds-DNA.
Reagents: Streptavidin-coated polyvinyltoluene (PVT) SPA beads were purchased from Amersham Biosciences (Piscataway, N.J.). Cesium chloride was purchased from Shelton Scientific, Inc. (Shelton, Conn.). White, polystyrene, flat-bottom, non-binding surface, 96-well plates were purchased from Corning. All other buffer components were purchased from Sigma (St. Louis, Mo.) unless otherwise indicated.
Enzyme Construction Full-length wild type HIV-1 integrase (SF1) sequence (amino acids 1-289) was constructed in a pET24a vector (Novagen, Madison, Wis.). The construct was confirmed through DNA sequencing.
Enzyme Purification Full length wild-type HIV Integrase was expressed in E. coli BL21 (DE3) cells and induced with 1 mM isopropyl-1 thio-β-D-galactopyranoside (IPTG) when cells reached an optical density between 0.8-1.0 at 600 nm. Cells were lysed by microfluidation in 50 mM HEPES pH 7.0, 75 mM NaCl, 5 mM DTT, 1 mM 4-(2-Aminoethyl)benzenesulfonylfluoride HCl (AEBSF). Lysate was then centrifuged 20 minutes at 11 k rpm in GSA rotor in Sorvall RC-5B at 4° C. Supernant was discarded and pellet resuspended in 50 mM HEPES pH 7.0, 750 mM NaCl, 5 mM DTT, 1 mM AEBSF and homogenized in a 40 mL Dounce homogenizer for 20 minutes on ice. Homogenate was then centrifuged 20 minutes at 11 k rpm in SS34 rotor in Sorvall RC-5B at 4° C. Supernant was discarded and pellet resuspended in 50 mM HEPES pH 7.0, 750 mM NaCl, 25 mM CHAPS, 5 mM DTT, 1 mM AEBSF. Preparation was then centrifuged 20 minutes at 11 k rpm in SS34 rotor in Sorvall RC-5B at 4° C.
Supernant was then diluted 1:1 with 50 mM HEPES pH 7.0, 25 mM CHAPS, 1 mM DTT, 1 mM AEBSF and loaded onto a Q-Sepharose column pre-equilibrated with 50 mM HEPES, pH 7.0, 375 mM NaCl, 25 mM CHAPS, 1 mM DTT, 1 mM AEBSF. The flow through peak was collected and NaCl diluted to 0.1 M with 50 mM HEPES pH 7.0, 25 mM CHAPS, 1 mM DTT, 0.5 mM AEBSF and loaded onto a SP-Sepharose column pre-equilibrated with 50 mM HEPES pH 7.0, 100 mM NaCl, 25 mM CHAPS, 1 mM DTT, 0.5 mM AEBSF. After washing the column with the equilibration buffer, a 100 to 400 mM NaCl gradient was run. The eluted integrase was concentrated and run on a S-300 gel diffusion column using 50 mM HEPES pH 7.0, 500 mM NaCl, 25 mM CHAPS, 1 mM DTT, 0.5 mM AEBSF. The peak from this column was concentrated to 0.76 mg/mL and stored at −70° C. and later used for strand transfer assays. […]
For orientation: SPA uses beads or plates that emit light when radiolabelled molecules are held near them.

Setting [3] is: Human immunodeficiency virus 1, CEM-SS, 144 h.
The mark [4] stands for this setting: Human immunodeficiency virus 1, 144 h, HIV-1 RF, CEM-SS cells, XTT, six days, read-out: EC50.

Read-outs that look alike come from different tables or passages of the source.

Broadly, the EC50 is the concentration needed to bring the measured effect to its halfway point. For orientation: IC50 means the concentration needed to halve the response being measured.

In experiment [1] (setting [3]), `CONC(=O)c1cc2c(C(=O)N3CCC[C@H]3CO)cn(Cc3ccc(F)cc3)c2cn1` [Example 10, 1-(4-fluorobenzyl)-3-{[(2S)-2-(hydroxymethyl)pyrrolidin-1-yl]carbonyl}-N-methoxy-1H-pyrrolo[2,3-c]pyridine-5-carboxamide] displayed an EC50 of 40 nM. Also, in experiment [2], the IC50 came out at 1140 nM.

In turn, `CONC(=O)c1cc2c(C(=O)NCc3cnn(C)c3C)cn(Cc3ccc(F)cc3)c2cn1` [Example 11, N~3~-[(1,5-dimethyl-1H-pyrazol-4-yl)methyl]-1-(4-fluorobenzyl)-N~5~- methoxy-1H-pyrrolo[2,3-c]pyridine-3,5-dicarboxamide] had an EC50 in experiment [1] (setting [3]) of 67 nM. Also, the IC50 in experiment [2] amounted to 530 nM.

`CONC(=O)c1cc2c(C(=O)N3CCC(N(C)C)C3)cn(Cc3ccc(F)cc3)c2cn1` (stereo not drawn) [Example 12, 3-{[3-(dimethylamino)pyrrolidin-1-yl]carbonyl)-1-(4-fluorobenzyl)-N-methoxy-1H-pyrrolo[2,3-c]pyridine-5-carboxamide] showed an EC50 in experiment [1] (setting [3]) of 140 nM. For the same compound, the IC50 in experiment [2] stood at 801 nM.

With `CONC(=O)c1cc2c(C(=O)N3CCCC(CO)C3)cn(Cc3ccc(F)cc3)c2cn1` (stereo not drawn) [Example 13, 1-(4-fluorobenzyi)-3-{[3-(hydroxymethyl)piperidin-1-yl]carbonyl}-N-methoxy-1H-pyrrolo[2,3-c]pyridine-5-carboxamide], the EC50 in experiment [1] (setting [3]) is 66 nM. Moreover, in experiment [2], the IC50 was 374 nM.

In turn, `CN(O)C(=O)c1cc2c(C(=O)NCC34CCCN3CCC4)cn(Cc3ccc(F)cc3)c2cn1` [Example 14, 1-(4-fluorobenzyl)-N~5~- hydroxy-N~5~-methyl-N~3~-(tetrahydro-1H-pyrrolizin-7a(5H)-ylmethyl)-1H-pyrrolo[2,3-c]pyridine-3,5-dicarboxamide] displayed an EC50 in experiment [1] (setting [3]) of 5400 nM. Moreover, the IC50 in experiment [2] was 2600 nM.

On to `CONC(=O)c1cc2c(C(=O)NC(CC(=O)NC3CC3)C3CC3)cn(Cc3ccc(F)cc3)c2cn1` (stereo not drawn) [Example 15, N~3~-[1-cyclopropyl-3-(cyclopropylamino)-3-oxopropyl]-1-(4-fluorobenzyl)-N~5~- methoxy-1H-pyrrolo[2,3-c]pyridine-3,5-dicarboxamide], for which the EC50 in experiment [1] (setting [3]) stood at 120 nM. In addition, the IC50 in experiment [2] is 300 nM.

Compound `CN(O)C(=O)c1cc2c(C(=O)NCCCN3CCCC3=O)cn(Cc3ccc(F)cc3)c2cn1` [Example 16, 1-(4-fluorobenzyl)-N~5~- hydroxy-N~5~-methyl-N~3~-[3-(2-oxopyrrolidin-1-yl)propyl]-1H-pyrrolo[2,3-c]pyridine-3,5-dicarboxamide] yielded an EC50 in experiment [1] (setting [3]) of 180 nM. In addition, the IC50 in experiment [2] is 211 nM.

As for `Cc1c(CNC(=O)c2cn(Cc3ccc(F)cc3)c3cnc(C(=O)N(C)O)cc23)cnn1C` [Example 17, N~3~-[(1,5-dimethyl-1H-pyrazol-4-yl)methyl]-1-(4-fluorobenzyl)-N~5~- hydroxy-N~5~-methyl-1H-pyrrolo[2,3-c]pyridine-3,5-dicarboxamide], the EC50 in experiment [1] (setting [3]) came out at 110 nM. In experiment [2], the IC50 came out at 168 nM.

For `CN(O)C(=O)c1cc2c(C(=O)NC(CC(=O)NC3CC3)C3CC3)cn(Cc3ccc(F)cc3)c2cn1` (stereo not drawn) [Example 18, N~3~-[1-cyclopropyl-3-(cyclopropylamino)-3-oxopropyl]-1-(4-fluorobenzyl)-N~5~- hydroxy-N~5~-methyl-1H-pyrrolo[2,3-c]pyridine-3,5-dicarboxamide], the half-maximal effective concentration (EC50) in experiment [1] (setting [3]) worked out at 460 nM. Also, the IC50 in experiment [2] turned out to be 230 nM.

As for `O=C(NO)c1cc2c(NS(=O)(=O)Cc3ccccc3)cn(Cc3ccc(F)cc3)c2cn1` [Example 19, 3-[(benzylsulfonyl)amino]-1-(4-fluorobenzyl)-N-hydroxy-1H-pyrrolo[2,3-c]pyridine-5-carboxamide], the EC50 in experiment [1] (setting [4]) amounted to 18 nM. Besides, in experiment [2], the IC50 worked out at 105 nM.

Take `O=C(NO)c1cc2c(NS(=O)(=O)c3ccc4c(c3)CNCC4)cn(Cc3ccc(F)cc3)c2cn1` [Example 20, 1-(4-fluorobenzyl)-N-hydroxy-3-[(1,2,3,4-tetrahydroisoquinolin-7-ylsulfonyl)amino]-1H-pyrrolo[2,3-c]pyridine-5-carboxamide]: the EC50 in experiment [1] (setting [4]) is 580 nM. For the same compound, the IC50 in experiment [2] was determined as 370 nM.

With `O=C(NO)c1cc2c(NS(=O)(=O)c3ccc(Cl)s3)cn(Cc3ccc(F)cc3)c2cn1` [Example 21, 3-{[(5-chloro-2-thienyl)sulfonyl]amino}-1-(4-fluorobenzyl)-N-hydroxy-1H-pyrrolo[2,3-c]pyridine-5-carboxamide], in experiment [1] (setting [4]), the EC50 was determined as 71 nM. In experiment [2], the IC50 stood at 102 nM.

As for `CN(O)C(=O)c1cc2c(C(=O)N3CCC[C@H]3CO)cn(Cc3ccc(F)cc3)c2cn1` [Example 22, 1-(4-fluorobenzyl)-N-hydroxy-3-{[(2S)-2-(hydroxymethyl)pyrrolidin-1-yl]carbonyl}-N-methyl-1H-pyrrolo[2,3-c]pyridine-5-carboxamide], it took 170 nM to reach a half-maximal effect in experiment [1] (setting [3]) (EC50). Also, the IC50 in experiment [2] worked out at 320 nM.

`O=C(NO)c1cc2c(C(=O)N3CCC[C@H]3CO)cn(Cc3ccc(F)cc3)c2cn1` [Example 23, 1-(4-fluorobenzyl)-N-hydroxy-3-{[(2S)-2-(hydroxymethyl)pyrrolidin-1-yl]carbonyl}-1H-pyrrolo[2,3-c]pyridine-5-carboxamide]: the EC50 in experiment [1] (setting [3]) was determined as 57 nM. Further, the IC50 in experiment [2] is 75 nM.

Regarding `O=C(CC(NC(=O)c1cn(Cc2ccc(F)cc2)c2cnc(C(=O)NO)cc12)C1CC1)NC1CC1` (stereo not drawn) [Example 24, N~3~-[1-cyclopropyl-3-(cyclopropylamino)-3-oxopropyl]-1-(4-fluorobenzyl)-N~5~- hydroxy-1H-pyrrolo[2,3-c]pyridine-3,5-dicarboxamide], in experiment [1] (setting [3]), the EC50 was determined as 380 nM. For the same compound, in experiment [2], the IC50 worked out at 16 nM.

The record behind these values is patent US20090170846A1, “INHIBITORS OF THE HIV INTEGRASE ENZYME” (Pfizer Inc, priority 2005, published 2009).
